Assay results reported in ChEMBL document CHEMBL1255447, “Efflux pumps, OprD porin, AmpC beta-lactamase, and multiresistance in Pseudomonas aeruginosa isolates from cystic fibrosis patients” (2010).
In brackets after ≈: the same amount, converted by molar mass.

Tests used:
Pseudomonas aeruginosa [1] = assay: Antimicrobial activity against Pseudomonas aeruginosa isolate 1530c from fibrosis patient by Etest; type: functional
Pseudomonas aeruginosa [2] = assay: Antimicrobial activity against Pseudomonas aeruginosa isolate 1529c from fibrosis patient by Etest; type: functional
Pseudomonas aeruginosa [3] = assay: Antimicrobial activity against Pseudomonas aeruginosa isolate 1495c from fibrosis patient by Etest; type: functional
Pseudomonas aeruginosa [4] = assay: Antimicrobial activity against Pseudomonas aeruginosa isolate 1333c from fibrosis patient by Etest; type: functional
Pseudomonas aeruginosa [5] = assay: Antimicrobial activity against Pseudomonas aeruginosa R70 Etest; type: functional
Pseudomonas aeruginosa [6] = assay: Antimicrobial activity against Pseudomonas aeruginosa AHP Etest; type: functional
Pseudomonas aeruginosa [7] = assay: Antimicrobial activity against Pseudomonas aeruginosa isolate 1352c from fibrosis patient by Etest; type: functional
Pseudomonas aeruginosa [8] = assay: microbe, parasite or virus in culture; details: isolate 13120
Description: Antimicrobial activity against Pseudomonas aeruginosa isolate 13120 from fibrosis patient by Etest

Pseudomonas aeruginosa [9] = assay: Antimicrobial activity against Pseudomonas aeruginosa isolate 13167 from fibrosis patient by Etest; type: functional
Pseudomonas aeruginosa [10] = assay: Antimicrobial activity against Pseudomonas aeruginosa R20 Etest; type: functional
Pseudomonas aeruginosa [11] = assay: Antimicrobial activity against Pseudomonas aeruginosa Z799/61 by Etest; type: functional
Pseudomonas aeruginosa [12] = assay: Antimicrobial activity against Pseudomonas aeruginosa isolate 1240 from fibrosis patient by Etest; type: functional
Pseudomonas aeruginosa [13] = assay: Antimicrobial activity against Pseudomonas aeruginosa isolate 15107 from fibrosis patient by Etest; type: functional
Pseudomonas aeruginosa [14] = assay: Antimicrobial activity against Pseudomonas aeruginosa isolate 1693c from fibrosis patient by Etest; type: functional
Pseudomonas aeruginosa [15] = assay: Antimicrobial activity against Pseudomonas aeruginosa isolate 3149 from fibrosis patient by Etest; type: functional
Pseudomonas aeruginosa [16] = assay: Antimicrobial activity against Pseudomonas aeruginosa M1251 by Etest
Pseudomonas aeruginosa [17] = assay: microbe, parasite or virus in culture; details: 2779-con
Description: Antimicrobial activity against Pseudomonas aeruginosa 2779-con by Etest

Pseudomonas aeruginosa [18] = assay: Antimicrobial activity against Pseudomonas aeruginosa 1405-con D2 by Etest; type: functional
Pseudomonas aeruginosa [19] = assay: Antimicrobial activity against Pseudomonas aeruginosa isolate 16008 from fibrosis patient by Etest; type: functional
Pseudomonas aeruginosa [20] = assay: Antimicrobial activity against Pseudomonas aeruginosa isolate 14169c from fibrosis patient by Etest; type: functional
Pseudomonas aeruginosa [21] = assay: Antimicrobial activity against Pseudomonas aeruginosa isolate 1248c from fibrosis patient by Etest; type: functional
Pseudomonas aeruginosa [22] = assay: Antimicrobial activity against Pseudomonas aeruginosa isolate 1681c from fibrosis patient by Etest; type: functional
Pseudomonas aeruginosa [23] = assay: Antimicrobial activity against Pseudomonas aeruginosa isolate 17112 from fibrosis patient by Etest; type: functional
Pseudomonas aeruginosa [24] = assay: Antimicrobial activity against Pseudomonas aeruginosa isolate 1253 from fibrosis patient by Etest; type: functional
Pseudomonas aeruginosa [25] = assay: Antimicrobial activity against Pseudomonas aeruginosa isolate 1712c from fibrosis patient by Etest; type: functional
Pseudomonas aeruginosa [26] = assay: Antimicrobial activity against Pseudomonas aeruginosa isolate 1247c from fibrosis patient by Etest; type: functional
Pseudomonas aeruginosa [27] = assay: Antimicrobial activity against Pseudomonas aeruginosa isolate 1665 from fibrosis patient by Etest; type: functional
Pseudomonas aeruginosa [28] = assay: Antimicrobial activity against Pseudomonas aeruginosa isolate 12142c from fibrosis patient by Etest; type: functional
Pseudomonas aeruginosa [29] = assay: Antimicrobial activity against Pseudomonas aeruginosa isolate 17145c from fibrosis patient by Etest; type: functional
Pseudomonas aeruginosa [30] = assay: Antimicrobial activity against Pseudomonas aeruginosa isolate 15110c from fibrosis patient by Etest; type: functional
Pseudomonas aeruginosa [31] = assay: Antimicrobial activity against Pseudomonas aeruginosa isolate 12102 from fibrosis patient by Etest; type: functional
Pseudomonas aeruginosa [32] = assay: Antimicrobial activity against Pseudomonas aeruginosa isolate 1726 from fibrosis patient by Etest; type: functional

C[C@@H](O)[C@H]1C(=O)N2C(C(=O)O)=C(S[C@@H]3CN[C@H](C(=O)N(C)C)C3)[C@H](C)[C@H]12 [MEROPENEM]
MIC (Pseudomonas aeruginosa [1]): 0.5 µg/mL (≈ 1.3 µM)
MIC (Pseudomonas aeruginosa [2]): 4 µg/mL (≈ 10.4 µM)
MIC (Pseudomonas aeruginosa [3]): > 32 µg/mL
MIC (Pseudomonas aeruginosa [4]): 16 µg/mL (≈ 41.7 µM)
MIC (Pseudomonas aeruginosa [5]): > 32 µg/mL
MIC (Pseudomonas aeruginosa [6]): 0.25 µg/mL (≈ 0.652 µM)
MIC (Pseudomonas aeruginosa [7]): 16 µg/mL (≈ 41.7 µM)
MIC (Pseudomonas aeruginosa [8]): 32 µg/mL (≈ 83.4 µM)
MIC (Pseudomonas aeruginosa [9]): 4 µg/mL (≈ 10.4 µM)
MIC (Pseudomonas aeruginosa [10]): 0.5 µg/mL (≈ 1.3 µM)
MIC (Pseudomonas aeruginosa [11]): ≤ 0.06 µg/mL
MIC (Pseudomonas aeruginosa [12]): 8 µg/mL (≈ 20.9 µM)
MIC (Pseudomonas aeruginosa [13]): 2 µg/mL (≈ 5.22 µM)
MIC (Pseudomonas aeruginosa [14]): 2 µg/mL (≈ 5.22 µM)
MIC (Pseudomonas aeruginosa [15]): 8 µg/mL (≈ 20.9 µM)
MIC (Pseudomonas aeruginosa [16]): 8 µg/mL (≈ 20.9 µM)
MIC (Pseudomonas aeruginosa [17]): 1 µg/mL (≈ 2.61 µM)
MIC (Pseudomonas aeruginosa [18]): 8 µg/mL (≈ 20.9 µM)
MIC (Pseudomonas aeruginosa [19]): 4 µg/mL (≈ 10.4 µM)
MIC (Pseudomonas aeruginosa [20]): 4 µg/mL (≈ 10.4 µM)
MIC (Pseudomonas aeruginosa [21]): 16 µg/mL (≈ 41.7 µM)
MIC (Pseudomonas aeruginosa [22]): 8 µg/mL (≈ 20.9 µM)
MIC (Pseudomonas aeruginosa [23]): > 32 µg/mL
MIC (Pseudomonas aeruginosa [24]): 32 µg/mL (≈ 83.4 µM)
MIC (Pseudomonas aeruginosa [25]): 32 µg/mL (≈ 83.4 µM)
MIC (Pseudomonas aeruginosa [26]): 4 µg/mL (≈ 10.4 µM)
MIC (Pseudomonas aeruginosa [27]): > 32 µg/mL
MIC (Pseudomonas aeruginosa [28]): 32 µg/mL (≈ 83.4 µM)
MIC (Pseudomonas aeruginosa [29]): 4 µg/mL (≈ 10.4 µM)
MIC (Pseudomonas aeruginosa [30]): 16 µg/mL (≈ 41.7 µM)
MIC (Pseudomonas aeruginosa [31]): 16 µg/mL (≈ 41.7 µM)
MIC (Pseudomonas aeruginosa [32]): 0.12 µg/mL (≈ 0.313 µM)

C[C@H]1[C@H](NC(=O)/C(=N\OC(C)(C)C(=O)O)c2csc(N)n2)C(=O)N1S(=O)(=O)O [AZTREONAM]
MIC (Pseudomonas aeruginosa [1]): 2 µg/mL (≈ 4.59 µM)
MIC (Pseudomonas aeruginosa [2]): 0.5 µg/mL (≈ 1.15 µM)
MIC (Pseudomonas aeruginosa [3]): > 64 µg/mL
MIC (Pseudomonas aeruginosa [6]): 0.5 µg/mL (≈ 1.15 µM)
MIC (Pseudomonas aeruginosa [7]): 32 µg/mL (≈ 73.5 µM)
MIC (Pseudomonas aeruginosa [8]): 16 µg/mL (≈ 36.7 µM)
MIC (Pseudomonas aeruginosa [9]): 16 µg/mL (≈ 36.7 µM)
MIC (Pseudomonas aeruginosa [11]): ≤ 0.12 µg/mL
MIC (Pseudomonas aeruginosa [12]): 4 µg/mL (≈ 9.19 µM)
MIC (Pseudomonas aeruginosa [13]): 2 µg/mL (≈ 4.59 µM)
MIC (Pseudomonas aeruginosa [14]): 1 µg/mL (≈ 2.3 µM)
MIC (Pseudomonas aeruginosa [15]): 64 µg/mL (≈ 147 µM)
MIC (Pseudomonas aeruginosa [16]): 32 µg/mL (≈ 73.5 µM)
MIC (Pseudomonas aeruginosa [17]): 32 µg/mL (≈ 73.5 µM)
MIC (Pseudomonas aeruginosa [19]): 0.5 µg/mL (≈ 1.15 µM)
MIC (Pseudomonas aeruginosa [21]): > 64 µg/mL
MIC (Pseudomonas aeruginosa [22]): 32 µg/mL (≈ 73.5 µM)
MIC (Pseudomonas aeruginosa [23]): > 64 µg/mL
MIC (Pseudomonas aeruginosa [24]): 16 µg/mL (≈ 36.7 µM)
MIC (Pseudomonas aeruginosa [25]): > 64 µg/mL
MIC (Pseudomonas aeruginosa [26]): 4 µg/mL (≈ 9.19 µM)
MIC (Pseudomonas aeruginosa [27]): > 64 µg/mL
MIC (Pseudomonas aeruginosa [28]): > 64 µg/mL
MIC (Pseudomonas aeruginosa [29]): 0.5 µg/mL (≈ 1.15 µM)
MIC (Pseudomonas aeruginosa [30]): > 64 µg/mL
MIC (Pseudomonas aeruginosa [32]): 0.5 µg/mL (≈ 1.15 µM)

NCC[C@H](O)C(=O)N[C@@H]1C[C@H](N)[C@@H](O[C@H]2O[C@H](CN)[C@@H](O)[C@H](O)[C@H]2O)[C@H](O)[C@H]1O[C@H]1O[C@H](CO)[C@@H](O)[C@H](N)[C@H]1O [AMIKACIN]
MIC (Pseudomonas aeruginosa [1]): 32 µg/mL (≈ 54.6 µM)
MIC (Pseudomonas aeruginosa [2]): 64 µg/mL (≈ 109 µM)
MIC (Pseudomonas aeruginosa [3]): > 64 µg/mL
MIC (Pseudomonas aeruginosa [4]): 64 µg/mL (≈ 109 µM)
MIC (Pseudomonas aeruginosa [5]): 1 µg/mL (≈ 1.71 µM)
MIC (Pseudomonas aeruginosa [6]): ≤ 0.5 µg/mL
MIC (Pseudomonas aeruginosa [7]): > 64 µg/mL
MIC (Pseudomonas aeruginosa [8]): 1 µg/mL (≈ 1.71 µM)
MIC (Pseudomonas aeruginosa [9]): 64 µg/mL (≈ 109 µM)
MIC (Pseudomonas aeruginosa [10]): ≤ 0.5 µg/mL
MIC (Pseudomonas aeruginosa [11]): 1 µg/mL (≈ 1.71 µM)
MIC (Pseudomonas aeruginosa [12]): 4 µg/mL (≈ 6.83 µM)
MIC (Pseudomonas aeruginosa [13]): > 64 µg/mL
MIC (Pseudomonas aeruginosa [14]): 1 µg/mL (≈ 1.71 µM)
MIC (Pseudomonas aeruginosa [15]): > 64 µg/mL
MIC (Pseudomonas aeruginosa [16]): 1 µg/mL (≈ 1.71 µM)
MIC (Pseudomonas aeruginosa [17]): 1 µg/mL (≈ 1.71 µM)
MIC (Pseudomonas aeruginosa [18]): 4 µg/mL (≈ 6.83 µM)
MIC (Pseudomonas aeruginosa [19]): 32 µg/mL (≈ 54.6 µM)
MIC (Pseudomonas aeruginosa [20]): 32 µg/mL (≈ 54.6 µM)
MIC (Pseudomonas aeruginosa [21]): > 64 µg/mL
MIC (Pseudomonas aeruginosa [22]): 64 µg/mL (≈ 109 µM)
MIC (Pseudomonas aeruginosa [23]): 1 µg/mL (≈ 1.71 µM)
MIC (Pseudomonas aeruginosa [24]): 32 µg/mL (≈ 54.6 µM)
MIC (Pseudomonas aeruginosa [25]): > 64 µg/mL
MIC (Pseudomonas aeruginosa [26]): > 64 µg/mL
MIC (Pseudomonas aeruginosa [27]): > 64 µg/mL
MIC (Pseudomonas aeruginosa [28]): > 64 µg/mL
MIC (Pseudomonas aeruginosa [29]): 64 µg/mL (≈ 109 µM)
MIC (Pseudomonas aeruginosa [30]): > 64 µg/mL
MIC (Pseudomonas aeruginosa [31]): 4 µg/mL (≈ 6.83 µM)
MIC (Pseudomonas aeruginosa [32]): 2 µg/mL (≈ 3.42 µM)

C[C@@H](O)[C@H]1C(=O)N2C(C(=O)O)=C(SCCNC=N)C[C@H]12 [IMIPENEM ANHYDROUS]
MIC (Pseudomonas aeruginosa [1]): 8 µg/mL (≈ 26.7 µM)
MIC (Pseudomonas aeruginosa [2]): 16 µg/mL (≈ 53.4 µM)
MIC (Pseudomonas aeruginosa [3]): > 32 µg/mL
MIC (Pseudomonas aeruginosa [4]): 32 µg/mL (≈ 107 µM)
MIC (Pseudomonas aeruginosa [5]): 16 µg/mL (≈ 53.4 µM)
MIC (Pseudomonas aeruginosa [6]): 0.12 µg/mL (≈ 0.401 µM)
MIC (Pseudomonas aeruginosa [7]): > 32 µg/mL
MIC (Pseudomonas aeruginosa [8]): 16 µg/mL (≈ 53.4 µM)
MIC (Pseudomonas aeruginosa [9]): 4 µg/mL (≈ 13.4 µM)
MIC (Pseudomonas aeruginosa [10]): 2 µg/mL (≈ 6.68 µM)
MIC (Pseudomonas aeruginosa [11]): 0.5 µg/mL (≈ 1.67 µM)
MIC (Pseudomonas aeruginosa [12]): 16 µg/mL (≈ 53.4 µM)
MIC (Pseudomonas aeruginosa [13]): 8 µg/mL (≈ 26.7 µM)
MIC (Pseudomonas aeruginosa [14]): 8 µg/mL (≈ 26.7 µM)
MIC (Pseudomonas aeruginosa [15]): 32 µg/mL (≈ 107 µM)
MIC (Pseudomonas aeruginosa [16]): 4 µg/mL (≈ 13.4 µM)
MIC (Pseudomonas aeruginosa [17]): 2 µg/mL (≈ 6.68 µM)
MIC (Pseudomonas aeruginosa [18]): 16 µg/mL (≈ 53.4 µM)
MIC (Pseudomonas aeruginosa [19]): 64 µg/mL (≈ 214 µM)
MIC (Pseudomonas aeruginosa [20]): 16 µg/mL (≈ 53.4 µM)
MIC (Pseudomonas aeruginosa [21]): 16 µg/mL (≈ 53.4 µM)
MIC (Pseudomonas aeruginosa [22]): 32 µg/mL (≈ 107 µM)
MIC (Pseudomonas aeruginosa [23]): 128 µg/mL (≈ 428 µM)
MIC (Pseudomonas aeruginosa [24]): > 32 µg/mL
MIC (Pseudomonas aeruginosa [25]): 32 µg/mL (≈ 107 µM)
MIC (Pseudomonas aeruginosa [26]): 16 µg/mL (≈ 53.4 µM)
MIC (Pseudomonas aeruginosa [27]): 64 µg/mL (≈ 214 µM)
MIC (Pseudomonas aeruginosa [28]): 32 µg/mL (≈ 107 µM)
MIC (Pseudomonas aeruginosa [29]): 32 µg/mL (≈ 107 µM)
MIC (Pseudomonas aeruginosa [30]): > 32 µg/mL
MIC (Pseudomonas aeruginosa [31]): 32 µg/mL (≈ 107 µM)
MIC (Pseudomonas aeruginosa [32]): 4 µg/mL (≈ 13.4 µM)

O=C(O)c1cn(C2CC2)c2cc(N3CCNCC3)c(F)cc2c1=O [CIPROFLOXACIN]
MIC (Pseudomonas aeruginosa [3]): 4 µg/mL (≈ 12.1 µM)
MIC (Pseudomonas aeruginosa [6]): ≤ 0.12 µg/mL
MIC (Pseudomonas aeruginosa [10]): ≤ 0.12 µg/mL
MIC (Pseudomonas aeruginosa [11]): ≤ 0.12 µg/mL
MIC (Pseudomonas aeruginosa [14]): 1 µg/mL (≈ 3.02 µM)
MIC (Pseudomonas aeruginosa [15]): > 8 µg/mL
MIC (Pseudomonas aeruginosa [17]): ≤ 0.12 µg/mL
MIC (Pseudomonas aeruginosa [19]): 4 µg/mL (≈ 12.1 µM)
MIC (Pseudomonas aeruginosa [20]): 1 µg/mL (≈ 3.02 µM)
MIC (Pseudomonas aeruginosa [21]): 4 µg/mL (≈ 12.1 µM)
MIC (Pseudomonas aeruginosa [25]): 4 µg/mL (≈ 12.1 µM)
MIC (Pseudomonas aeruginosa [26]): 4 µg/mL (≈ 12.1 µM)
MIC (Pseudomonas aeruginosa [27]): 4 µg/mL (≈ 12.1 µM)
MIC (Pseudomonas aeruginosa [28]): 4 µg/mL (≈ 12.1 µM)
MIC (Pseudomonas aeruginosa [29]): 4 µg/mL (≈ 12.1 µM)
